EP0280051A1, “ACV synthetase” (QUEEN'S UNIVERSITY AT KINGSTON, priority 1987, dated 1988)

Target: ACV-synthetase of C. acremonium C-10 (Hapsidospora chrysogena, UniProt P25464)
Test: Cell-free ACV synthetase reaction (desalted extract, HPLC analysis after monobromobimane derivatization)
Format: biochemical
Settings: for inhibition of ACV-synthetase: qualitative, concentration not clearly stated for the inhibitors
Method: a Typical reaction mixtures contained desalted extract (about 0.5 mg protein), 20 µg cycloheximide, 10 mM ATP, 10 mM MgC12, 5 mM dithiothreitol, 5 mM L-α-aminoadipic acid, I mM L -cysteine and 5 mM L -valine, all components dissolved in 100 µl of 100 mM MOPS/KOH at pH 7.5. Reactions were performed at 25°C in a water bath shaker, and terminated by addition of 25 µl of 20% trichloroacetic acid. Precipitated protein was removed by centrifugation, and the supernatant stored at -20°C prior to analysis. (MOPS = 3-[N-Morpholino] propanesulfonic acid, - a biological buffer available from Sigma Chemical Co.
Mycelia from Example 1 were washed twice with cold 50 mM Tris/HC1 buffer (pH 7.2) containing 100 mM KC1. After centrifugation, the pellet was resuspended in a volume of cold 100 mM MOPS/KOH buffer (pH 7.2) equal to twice the pellet volume; the buffer also contained 50 mM KCI, 30 mM 2-mercaptoethanol, 20 mM EDTA and 50% glycerol (v/v). The cells were disrupted in a French Press (Aminco) at 8000 psi and the debris removed by centrifugation (30,000×g, 15 min). The clear yellow supernatant fluid was stored at -20°C or immediately desalted by passage through a Sephadex G-15 column using an elution buffer of 100 mM MOPSiKOH (pH 7.2) containing 50 mM KCI and 20% glycerol (v/v). The resulting solution contained 10 to 20 mg protein per ml and was either used immediately for the cell-free reaction or frozen for future use.
Stored frozen extract (from Example 2) was thawed, desalted over Sephadex eG-15, and eluted with 100 mM MOPS/KOH at pH 7.5. Typical reaction mixtures contained desalted extract (about 0.5 mg protein), 20 µg cycloheximide, 10 mM ATP, 10 mM MgCI2, 5 mM dithiothreitol, 5 mM L-α-aminoadipic acid, 1 mM L -cysteine and 5 mM L-valine, all components dissolved in 100 µl of 100 mM MOPS/KOH at pH 7.5. Reactions were performed at 25°C in a water bath shaker, and terminated by addition of 25 µl of 20% trichloroacetic acid. Precipitated protein was removed by centrifugation, and the supernatant stored at -20°C prior to analysis.
Analyses were performed following derivatization with monobromobimane: to a 20 I sample were added successively 2 µl of 3M KOH, 4 µl of 0.03M dithiothreitol in 2M NH4HCO3 (pH 8.2), and 4 µl of 0.3M monobromobimane in acetonitrile. This mixture was stored for 15 min. in the dark, and then extracted with methylene chloride (4 × 200 I). Five µl of 1 M citric acid (pH 2.2) was added, and 25 µl of this final solution was injected into the HPLC apparatus.
The HPLC analysis employed two solutions, viz., A, 880 mg for pentanesulfonic acid, 2.5 ml of acetic acid in I liter H20 (pH 3.6); B, 880 mg of pentanesulfonic acid, 2.5 ml acetic acid, 50 ml water and 950 ml acetonitrile. […]

Chain of ACV-synthetase of C. acremonium C-10 (P25464 whole entry): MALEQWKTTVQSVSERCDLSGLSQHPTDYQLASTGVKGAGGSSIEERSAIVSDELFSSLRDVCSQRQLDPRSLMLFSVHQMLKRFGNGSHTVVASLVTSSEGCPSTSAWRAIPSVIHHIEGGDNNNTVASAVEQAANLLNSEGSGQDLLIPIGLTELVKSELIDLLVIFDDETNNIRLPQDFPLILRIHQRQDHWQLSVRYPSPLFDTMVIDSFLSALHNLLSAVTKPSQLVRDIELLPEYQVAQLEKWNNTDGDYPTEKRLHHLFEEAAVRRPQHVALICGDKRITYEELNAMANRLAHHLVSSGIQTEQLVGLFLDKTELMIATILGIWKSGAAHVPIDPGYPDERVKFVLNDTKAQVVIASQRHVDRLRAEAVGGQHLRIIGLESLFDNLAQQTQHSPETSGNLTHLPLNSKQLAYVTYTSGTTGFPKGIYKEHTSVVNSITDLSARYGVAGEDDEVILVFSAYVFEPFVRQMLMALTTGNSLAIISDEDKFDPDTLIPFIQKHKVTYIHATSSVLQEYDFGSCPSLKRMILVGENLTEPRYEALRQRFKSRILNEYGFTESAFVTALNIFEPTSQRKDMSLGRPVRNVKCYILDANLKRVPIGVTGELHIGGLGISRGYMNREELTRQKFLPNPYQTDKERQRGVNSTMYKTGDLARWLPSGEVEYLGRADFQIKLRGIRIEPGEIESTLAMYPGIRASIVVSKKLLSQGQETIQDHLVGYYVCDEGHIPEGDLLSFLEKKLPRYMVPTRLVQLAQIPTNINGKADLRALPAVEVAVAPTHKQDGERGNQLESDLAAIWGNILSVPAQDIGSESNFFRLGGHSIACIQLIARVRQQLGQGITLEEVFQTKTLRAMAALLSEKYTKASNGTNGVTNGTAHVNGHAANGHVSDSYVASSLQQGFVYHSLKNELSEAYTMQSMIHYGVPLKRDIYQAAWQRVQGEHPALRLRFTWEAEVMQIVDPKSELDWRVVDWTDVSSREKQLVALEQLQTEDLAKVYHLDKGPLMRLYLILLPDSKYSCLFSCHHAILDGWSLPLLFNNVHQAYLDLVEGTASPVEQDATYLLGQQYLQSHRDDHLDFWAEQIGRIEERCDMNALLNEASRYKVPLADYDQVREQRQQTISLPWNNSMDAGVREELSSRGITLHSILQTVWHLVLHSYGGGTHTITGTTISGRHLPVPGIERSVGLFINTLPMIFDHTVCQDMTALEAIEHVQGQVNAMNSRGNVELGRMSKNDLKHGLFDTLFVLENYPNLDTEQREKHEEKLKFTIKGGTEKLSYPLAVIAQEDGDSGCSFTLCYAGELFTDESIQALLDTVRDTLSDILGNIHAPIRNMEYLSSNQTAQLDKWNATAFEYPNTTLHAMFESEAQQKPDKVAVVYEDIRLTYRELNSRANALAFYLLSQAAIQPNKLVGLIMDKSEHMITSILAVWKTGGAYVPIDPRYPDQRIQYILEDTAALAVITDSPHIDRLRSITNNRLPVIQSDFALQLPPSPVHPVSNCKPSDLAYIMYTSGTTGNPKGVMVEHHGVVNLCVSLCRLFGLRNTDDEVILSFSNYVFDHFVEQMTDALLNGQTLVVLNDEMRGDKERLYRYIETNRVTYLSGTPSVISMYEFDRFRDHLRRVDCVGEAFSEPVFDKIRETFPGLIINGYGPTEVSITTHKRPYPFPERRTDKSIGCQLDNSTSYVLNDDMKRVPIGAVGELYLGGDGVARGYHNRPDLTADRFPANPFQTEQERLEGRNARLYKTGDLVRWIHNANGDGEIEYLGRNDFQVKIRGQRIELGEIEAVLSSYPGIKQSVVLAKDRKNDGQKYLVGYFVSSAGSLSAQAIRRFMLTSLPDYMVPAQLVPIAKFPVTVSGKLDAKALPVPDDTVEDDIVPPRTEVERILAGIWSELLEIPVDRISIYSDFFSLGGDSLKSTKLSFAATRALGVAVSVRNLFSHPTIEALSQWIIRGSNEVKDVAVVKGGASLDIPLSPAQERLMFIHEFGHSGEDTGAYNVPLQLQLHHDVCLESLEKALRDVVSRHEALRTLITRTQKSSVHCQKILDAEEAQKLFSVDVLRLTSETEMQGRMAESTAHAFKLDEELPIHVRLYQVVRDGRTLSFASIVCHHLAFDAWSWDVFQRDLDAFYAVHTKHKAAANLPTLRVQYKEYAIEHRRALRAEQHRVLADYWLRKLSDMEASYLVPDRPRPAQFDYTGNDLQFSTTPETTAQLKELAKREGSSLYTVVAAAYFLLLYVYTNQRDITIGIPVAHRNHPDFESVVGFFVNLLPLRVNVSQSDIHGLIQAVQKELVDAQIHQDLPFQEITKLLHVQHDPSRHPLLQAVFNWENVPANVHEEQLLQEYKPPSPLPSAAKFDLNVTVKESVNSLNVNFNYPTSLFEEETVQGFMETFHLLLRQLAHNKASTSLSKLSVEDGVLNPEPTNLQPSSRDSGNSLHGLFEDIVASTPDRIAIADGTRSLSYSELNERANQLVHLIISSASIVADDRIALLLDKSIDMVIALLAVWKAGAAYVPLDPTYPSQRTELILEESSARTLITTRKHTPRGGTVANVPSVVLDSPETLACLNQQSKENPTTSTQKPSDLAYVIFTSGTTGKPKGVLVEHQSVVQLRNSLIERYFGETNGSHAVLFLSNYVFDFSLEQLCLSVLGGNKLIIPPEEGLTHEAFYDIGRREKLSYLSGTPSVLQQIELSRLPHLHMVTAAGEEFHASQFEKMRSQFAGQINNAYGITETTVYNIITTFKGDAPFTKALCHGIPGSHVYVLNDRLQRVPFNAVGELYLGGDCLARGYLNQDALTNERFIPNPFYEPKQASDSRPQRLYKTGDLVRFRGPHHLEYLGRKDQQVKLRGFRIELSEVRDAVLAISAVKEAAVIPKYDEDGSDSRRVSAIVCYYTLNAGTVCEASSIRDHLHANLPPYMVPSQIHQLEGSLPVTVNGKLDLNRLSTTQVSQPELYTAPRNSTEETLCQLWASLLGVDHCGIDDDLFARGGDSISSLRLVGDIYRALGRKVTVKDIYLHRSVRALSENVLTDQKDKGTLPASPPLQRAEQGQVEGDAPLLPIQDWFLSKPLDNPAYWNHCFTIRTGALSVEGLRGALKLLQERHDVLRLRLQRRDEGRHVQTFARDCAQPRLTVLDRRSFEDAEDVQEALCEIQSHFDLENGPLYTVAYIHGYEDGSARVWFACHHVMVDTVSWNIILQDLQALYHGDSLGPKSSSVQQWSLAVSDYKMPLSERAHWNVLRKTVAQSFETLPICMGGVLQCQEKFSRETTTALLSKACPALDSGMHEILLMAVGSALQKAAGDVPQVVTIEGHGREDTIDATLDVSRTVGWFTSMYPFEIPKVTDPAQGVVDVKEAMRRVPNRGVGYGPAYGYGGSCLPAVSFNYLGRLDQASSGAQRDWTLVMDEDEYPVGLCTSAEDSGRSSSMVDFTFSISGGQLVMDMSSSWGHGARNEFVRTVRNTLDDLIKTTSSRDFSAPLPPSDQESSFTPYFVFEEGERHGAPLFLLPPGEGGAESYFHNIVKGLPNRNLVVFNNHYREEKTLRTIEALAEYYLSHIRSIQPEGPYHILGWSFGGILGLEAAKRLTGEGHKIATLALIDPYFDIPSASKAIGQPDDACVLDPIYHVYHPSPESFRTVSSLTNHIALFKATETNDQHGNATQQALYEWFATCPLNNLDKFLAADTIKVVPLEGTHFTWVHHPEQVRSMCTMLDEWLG

Compound	inhibition of ACV-synthetase	effect on LLD-ACV synthesis (added as a fourth amino acid, concentration not given)
Fructose-1.6-diphosphate	inhibit	–
NCC(=O)O [glycine]	–	unaffected
orthophosphate	inhibit	–
glucose-1-phosphate	inhibit	–
